For test [1], the target named is RAF proto-oncogene serine/threonine-protein kinase (Homo sapiens) (UniProt P04049). In words: Inhibition of CRAF (unknown origin) by Nano-syn mobility shift assay.
In test [2] the target is Vascular endothelial growth factor receptor 2 (Homo sapiens) (UniProt P35968). In words: Inhibition of KDR (unknown origin) by Nano-syn mobility shift assay.
Test [3] deals with MAP kinase-interacting serine/threonine-protein kinase 2 (Homo sapiens) (UniProt Q9HBH9). In words: Inhibition of MKNK2 (unknown origin) by Nano-syn mobility shift assay.
Test [4] has as its target MAP kinase-interacting serine/threonine-protein kinase 1 (Homo sapiens) (UniProt Q9BUB5). In words: Inhibition of MKNK1 (unknown origin) by Nano-syn mobility shift assay.
Test [5] deals with Mitogen-activated protein kinase 11 (Homo sapiens) (UniProt Q15759). In words: Inhibition of MAPK11 (unknown origin) by Nano-syn mobility shift assay.
Test [6] deals with Mitogen-activated protein kinase 14 (Homo sapiens) (UniProt Q16539). In words: Inhibition of MAPK14 (unknown origin) by Nano-syn mobility shift assay.
In test [7] the target is Tyrosine-protein kinase ABL1 (Homo sapiens, UniProt P00519). In words: Inhibition of NanoLuc-tagged ABL1 wild type (unknown origin) expressed in HEK293 cells by NanoBRET TE assay. It counts as cell-based.
Test [8] relates to BaF3. In words: Cytotoxicity against mouse BaF3 cells stably expressing ABL wildtype assessed as cell growth inhibition incubated for 72 hrs by celltiter-glo luminescent cell viability assay. It counts as functional.
Test [9] has as its system BaF3. In words: Cytotoxicity against mouse BaF3 cells stably expressing ABL-T315I mutant assessed as cell growth inhibition incubated for 72 hrs by celltiter-glo luminescent cell viability assay. Format: functional.
Another test deals with K562. In words: Cytotoxicity against human K562 cells assessed as cell growth inhibition incubated for 72 hrs by celltiter-glo luminescent cell viability assay. It counts as functional.
The target in test [10] is Ephrin type-A receptor 2 (Homo sapiens) (UniProt P29317). The test is described as follows: Inhibition of EPH-A2 (unknown origin) by Nano-syn mobility shift assay.
Test [11] concerns the target Fibroblast growth factor receptor 1 (Homo sapiens) (UniProt P11362). In words: Inhibition of FGFR1 (unknown origin) by Nano-syn mobility shift assay.
The target in test [12] is Tyrosine-protein kinase Fgr (Homo sapiens) (UniProt P09769). The test is described as follows: Inhibition of FGR (unknown origin) by Nano-syn mobility shift assay.
The target in test [13] is Fibroblast growth factor receptor 3 (Homo sapiens) (UniProt P22607). The test is described as follows: Inhibition of FGFR3 (unknown origin) by Nano-syn mobility shift assay.
Test [14] concerns the target Tyrosine-protein kinase receptor UFO (Homo sapiens) (UniProt P30530). The test is described as follows: Inhibition of AXL (unknown origin) by Nano-syn mobility shift assay.
For test [15], the target named is Platelet-derived growth factor receptor alpha (Homo sapiens) (UniProt P16234). In words: Inhibition of PDFGRA (unknown origin) by Nano-syn mobility shift assay. Particulars: concentration not given here.
Test [16] deals with Receptor-type tyrosine-protein kinase FLT3 (Homo sapiens) (UniProt P36888). The test is described as follows: Inhibition of FLT3 (unknown origin) by Nano-syn mobility shift assay. To be noted: concentration not given here.
The target of test [17] is High affinity nerve growth factor receptor (Homo sapiens) (UniProt P04629). In words: Inhibition of NTRK1 (unknown origin) by Nano-syn mobility shift assay. Particulars: concentration not given here.
The target of test [18] is Tyrosine-protein kinase Lck (Homo sapiens) (UniProt P06239). The test is described as follows: Inhibition of LCK (unknown origin) by Nano-syn mobility shift assay. To be noted: concentration not given here.
Test [19] concerns the target Tyrosine-protein kinase ABL2 (Homo sapiens) (UniProt P42684). In words: Inhibition of ABL2 (unknown origin) by Nano-syn mobility shift assay. To be noted: concentration not given here.
In test [20] the target is Angiopoietin-1 receptor (Homo sapiens) (UniProt Q02763). In words: Inhibition of TEK (unknown origin) by Nano-syn mobility shift assay. To be noted: concentration not given here.
Test [21] has as its target Platelet-derived growth factor receptor beta (Homo sapiens) (UniProt P09619). In words: Inhibition of PDFGRB (unknown origin) by Nano-syn mobility shift assay.
Test [22] concerns the target Muscle, skeletal receptor tyrosine-protein kinase (Homo sapiens) (UniProt O15146). In words: Inhibition of MUSK (unknown origin) by Nano-syn mobility shift assay.
Test [23] concerns the target Vascular endothelial growth factor receptor 3 (Homo sapiens) (UniProt P35916). The test is described as follows: Inhibition of FLT4 (unknown origin) by Nano-syn mobility shift assay.
Test [24] addresses Vascular endothelial growth factor receptor 1 (Homo sapiens) (UniProt P17948). The test is described as follows: Inhibition of FLT1 (unknown origin) by Nano-syn mobility shift assay.
Test [25] concerns the target Ephrin type-A receptor 8 (Homo sapiens) (UniProt P29322). The test is described as follows: Inhibition of EPH-A8 (unknown origin) by Nano-syn mobility shift assay.
Test [26] addresses Discoidin domain-containing receptor 2 (Homo sapiens) (UniProt Q16832). The test is described as follows: Inhibition of DDR2 (unknown origin) by Nano-syn mobility shift assay.
Test [27] deals with Proto-oncogene tyrosine-protein kinase receptor Ret (Homo sapiens) (UniProt P07949). The test is described as follows: Inhibition of RET (unknown origin) by Nano-syn mobility shift assay.
For test [28], the species on record is Homo sapiens. The test is described as follows: Inhibition of LYNB (unknown origin) by Nano-syn mobility shift assay. To be noted: concentration not given here.
The species named for test [29] is Homo sapiens. In words: Inhibition of LYNA (unknown origin) by Nano-syn mobility shift assay. Particulars: concentration not given here.
For test [30], the target named is Tyrosine-protein kinase receptor UFO (Homo sapiens, UniProt P30530). In words: Inhibition of AXL (unknown origin) using peptide substrate in presence of ATP by radiometric HotSpot assay.

Activity calls are given as the source filed them. No cut-off for these calls is given here.

Angiopoietin-1 receptor (Homo sapiens), sequence (Q02763 whole entry): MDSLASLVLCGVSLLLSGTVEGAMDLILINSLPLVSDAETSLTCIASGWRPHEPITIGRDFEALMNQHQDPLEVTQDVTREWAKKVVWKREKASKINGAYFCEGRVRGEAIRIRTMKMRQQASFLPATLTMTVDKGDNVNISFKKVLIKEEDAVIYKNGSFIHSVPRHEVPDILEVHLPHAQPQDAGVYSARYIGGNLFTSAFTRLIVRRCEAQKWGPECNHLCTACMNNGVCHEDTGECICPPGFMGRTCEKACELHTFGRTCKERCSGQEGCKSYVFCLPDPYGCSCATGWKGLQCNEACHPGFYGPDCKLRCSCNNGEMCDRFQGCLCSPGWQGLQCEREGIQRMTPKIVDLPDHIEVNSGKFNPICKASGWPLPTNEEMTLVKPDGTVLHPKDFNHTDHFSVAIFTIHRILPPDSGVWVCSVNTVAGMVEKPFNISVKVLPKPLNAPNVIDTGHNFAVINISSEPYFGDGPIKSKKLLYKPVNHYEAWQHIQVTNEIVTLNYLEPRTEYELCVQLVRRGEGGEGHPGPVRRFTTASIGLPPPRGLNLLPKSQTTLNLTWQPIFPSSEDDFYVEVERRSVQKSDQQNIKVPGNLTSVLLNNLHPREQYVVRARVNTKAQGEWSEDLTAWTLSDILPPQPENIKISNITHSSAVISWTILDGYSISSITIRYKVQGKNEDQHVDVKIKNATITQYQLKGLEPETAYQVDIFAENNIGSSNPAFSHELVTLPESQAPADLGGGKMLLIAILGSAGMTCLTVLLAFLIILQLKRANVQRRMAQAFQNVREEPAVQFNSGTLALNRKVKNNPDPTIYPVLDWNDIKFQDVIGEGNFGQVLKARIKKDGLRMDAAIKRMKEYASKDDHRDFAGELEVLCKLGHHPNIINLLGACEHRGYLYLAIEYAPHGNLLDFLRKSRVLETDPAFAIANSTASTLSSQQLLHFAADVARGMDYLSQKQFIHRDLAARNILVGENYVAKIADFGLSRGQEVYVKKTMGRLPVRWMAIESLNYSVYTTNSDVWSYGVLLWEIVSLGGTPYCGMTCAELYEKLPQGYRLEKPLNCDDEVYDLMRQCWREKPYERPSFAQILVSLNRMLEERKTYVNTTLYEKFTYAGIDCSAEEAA
Receptor-type tyrosine-protein kinase FLT3 (Homo sapiens), sequence (P36888 whole entry): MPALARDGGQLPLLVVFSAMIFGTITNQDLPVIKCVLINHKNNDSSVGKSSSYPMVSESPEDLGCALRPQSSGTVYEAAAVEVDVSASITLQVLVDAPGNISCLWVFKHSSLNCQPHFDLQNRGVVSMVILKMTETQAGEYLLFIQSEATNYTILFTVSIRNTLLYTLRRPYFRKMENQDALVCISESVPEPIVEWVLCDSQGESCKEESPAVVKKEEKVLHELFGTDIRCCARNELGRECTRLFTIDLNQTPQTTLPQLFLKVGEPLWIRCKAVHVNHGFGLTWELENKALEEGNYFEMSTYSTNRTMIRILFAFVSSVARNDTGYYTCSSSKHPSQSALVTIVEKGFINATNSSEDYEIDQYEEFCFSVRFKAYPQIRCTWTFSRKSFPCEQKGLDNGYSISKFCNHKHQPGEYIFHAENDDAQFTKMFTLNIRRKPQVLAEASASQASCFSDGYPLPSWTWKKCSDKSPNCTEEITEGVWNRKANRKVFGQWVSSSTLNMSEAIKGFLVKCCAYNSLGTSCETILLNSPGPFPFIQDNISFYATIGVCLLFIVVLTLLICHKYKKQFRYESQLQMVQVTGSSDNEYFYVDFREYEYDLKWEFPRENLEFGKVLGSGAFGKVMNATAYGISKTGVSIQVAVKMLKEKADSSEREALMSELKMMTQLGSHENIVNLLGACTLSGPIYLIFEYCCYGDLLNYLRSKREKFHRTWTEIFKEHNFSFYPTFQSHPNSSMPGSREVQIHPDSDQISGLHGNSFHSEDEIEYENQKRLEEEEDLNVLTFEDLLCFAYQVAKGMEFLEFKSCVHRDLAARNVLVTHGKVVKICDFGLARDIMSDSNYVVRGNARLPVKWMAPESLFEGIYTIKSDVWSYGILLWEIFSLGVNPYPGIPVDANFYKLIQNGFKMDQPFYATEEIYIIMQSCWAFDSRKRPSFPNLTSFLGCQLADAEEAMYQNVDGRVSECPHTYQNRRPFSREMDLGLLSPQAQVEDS
High affinity nerve growth factor receptor (Homo sapiens), sequence (P04629 33-796 limits assumed): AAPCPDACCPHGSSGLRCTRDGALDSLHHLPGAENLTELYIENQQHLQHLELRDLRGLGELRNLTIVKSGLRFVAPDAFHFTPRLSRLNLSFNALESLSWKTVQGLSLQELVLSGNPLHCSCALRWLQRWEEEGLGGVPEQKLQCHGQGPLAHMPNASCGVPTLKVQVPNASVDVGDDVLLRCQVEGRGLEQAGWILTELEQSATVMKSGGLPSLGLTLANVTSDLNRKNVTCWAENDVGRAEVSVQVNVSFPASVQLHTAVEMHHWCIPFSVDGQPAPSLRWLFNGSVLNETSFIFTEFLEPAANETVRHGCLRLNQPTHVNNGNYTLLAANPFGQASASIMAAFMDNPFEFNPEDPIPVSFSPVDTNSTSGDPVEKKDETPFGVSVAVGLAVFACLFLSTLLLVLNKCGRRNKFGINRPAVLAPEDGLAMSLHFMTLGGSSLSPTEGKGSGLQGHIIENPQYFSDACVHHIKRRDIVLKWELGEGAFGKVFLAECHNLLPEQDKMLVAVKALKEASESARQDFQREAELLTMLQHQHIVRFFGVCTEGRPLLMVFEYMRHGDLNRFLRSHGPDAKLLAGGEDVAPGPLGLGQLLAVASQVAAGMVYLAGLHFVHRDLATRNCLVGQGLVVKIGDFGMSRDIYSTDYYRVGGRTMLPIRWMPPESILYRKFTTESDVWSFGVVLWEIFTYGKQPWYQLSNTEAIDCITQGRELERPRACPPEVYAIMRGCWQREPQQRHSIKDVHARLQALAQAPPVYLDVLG
Tyrosine-protein kinase ABL2 (Homo sapiens), sequence (P42684 whole entry): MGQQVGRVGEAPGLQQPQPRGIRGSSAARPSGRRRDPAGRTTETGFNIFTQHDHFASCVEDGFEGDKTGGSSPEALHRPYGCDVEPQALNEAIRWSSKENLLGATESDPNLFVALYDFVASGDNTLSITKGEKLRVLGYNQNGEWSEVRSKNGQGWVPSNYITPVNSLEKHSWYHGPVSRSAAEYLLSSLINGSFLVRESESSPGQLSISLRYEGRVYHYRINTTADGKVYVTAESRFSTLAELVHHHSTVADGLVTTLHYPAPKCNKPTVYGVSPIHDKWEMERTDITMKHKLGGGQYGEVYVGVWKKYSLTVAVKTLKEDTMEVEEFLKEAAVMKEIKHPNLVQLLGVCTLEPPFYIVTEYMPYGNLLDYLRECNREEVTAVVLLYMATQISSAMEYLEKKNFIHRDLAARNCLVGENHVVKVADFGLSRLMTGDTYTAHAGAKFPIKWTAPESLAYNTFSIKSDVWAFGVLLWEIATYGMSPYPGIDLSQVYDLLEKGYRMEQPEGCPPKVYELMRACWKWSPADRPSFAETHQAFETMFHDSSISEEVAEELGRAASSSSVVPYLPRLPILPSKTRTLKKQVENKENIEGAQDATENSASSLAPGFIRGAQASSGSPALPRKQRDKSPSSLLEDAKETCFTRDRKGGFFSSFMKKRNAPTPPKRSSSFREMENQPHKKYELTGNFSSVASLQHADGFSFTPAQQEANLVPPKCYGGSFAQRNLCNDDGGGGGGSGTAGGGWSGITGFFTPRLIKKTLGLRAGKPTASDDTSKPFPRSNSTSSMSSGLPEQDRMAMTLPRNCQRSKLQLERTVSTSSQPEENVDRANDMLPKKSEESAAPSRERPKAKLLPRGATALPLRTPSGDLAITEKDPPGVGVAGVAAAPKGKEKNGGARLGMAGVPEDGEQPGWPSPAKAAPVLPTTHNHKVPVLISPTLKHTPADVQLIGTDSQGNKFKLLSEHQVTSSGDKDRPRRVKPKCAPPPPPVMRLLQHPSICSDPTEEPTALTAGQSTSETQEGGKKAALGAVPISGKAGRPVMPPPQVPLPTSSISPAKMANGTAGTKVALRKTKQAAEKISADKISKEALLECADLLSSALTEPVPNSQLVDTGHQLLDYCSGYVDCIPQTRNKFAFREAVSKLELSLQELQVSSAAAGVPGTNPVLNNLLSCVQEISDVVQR
Mitogen-activated protein kinase 14 (Homo sapiens), sequence (Q16539 whole entry): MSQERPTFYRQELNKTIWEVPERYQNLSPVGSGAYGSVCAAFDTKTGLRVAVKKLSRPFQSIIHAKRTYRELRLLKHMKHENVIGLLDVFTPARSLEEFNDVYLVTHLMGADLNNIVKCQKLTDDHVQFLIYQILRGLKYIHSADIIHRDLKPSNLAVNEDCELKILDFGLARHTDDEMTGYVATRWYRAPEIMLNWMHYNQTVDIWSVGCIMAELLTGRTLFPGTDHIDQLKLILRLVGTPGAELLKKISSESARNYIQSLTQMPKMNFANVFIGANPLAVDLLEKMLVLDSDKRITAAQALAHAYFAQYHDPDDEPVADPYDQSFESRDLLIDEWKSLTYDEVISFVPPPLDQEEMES
MAP kinase-interacting serine/threonine-protein kinase 1 (Homo sapiens), sequence (Q9BUB5 whole entry, looked up): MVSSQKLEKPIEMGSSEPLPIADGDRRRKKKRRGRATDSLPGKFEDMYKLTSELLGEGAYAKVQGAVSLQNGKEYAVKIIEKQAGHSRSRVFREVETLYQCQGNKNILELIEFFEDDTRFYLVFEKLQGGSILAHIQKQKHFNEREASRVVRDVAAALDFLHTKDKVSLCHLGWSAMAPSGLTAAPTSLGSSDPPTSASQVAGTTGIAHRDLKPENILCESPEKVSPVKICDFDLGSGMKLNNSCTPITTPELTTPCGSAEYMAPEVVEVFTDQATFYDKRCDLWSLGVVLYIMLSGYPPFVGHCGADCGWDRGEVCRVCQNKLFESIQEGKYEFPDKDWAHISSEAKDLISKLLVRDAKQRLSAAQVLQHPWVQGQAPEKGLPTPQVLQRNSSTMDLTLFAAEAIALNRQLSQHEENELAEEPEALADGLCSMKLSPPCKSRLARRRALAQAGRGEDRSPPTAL

Turning to `CN1CCN(Cc2ccc(NC(=O)Nc3ccc(Oc4ccc5cccnc5c4)cc3)cc2C(F)(F)F)CC1`, the inhibition result in [1], in test [2], in [3], in test [4], in [5] and in test [6] was “Active” throughout. This compound also gave an IC50 in [7] of 0.637 µM. The GI50 with BaF3 [8] is greater than 10 µM; in the test on BaF3 [9] it was greater than 10 µM; with K562 it was 0.451 µM.
On to `CC(C)(C)c1cc(NC(=O)Nc2ccc(Oc3ccc4ncncc4c3)cc2)n(-c2ccc3ncccc3c2)n1`, for which the inhibition entry in test [10], in test [11], in test [12], in [13] and in test [14] was “Active” throughout. Also, the inhibition in [15], in test [16], in test [17], in [18], in test [19] and in test [20] was greater than 50% in each case. Further, the values for the GI50 with BaF3 [8], with BaF3 [9] and in the test on K562 were 0.066 µM, 0.269 µM and 0.004 µM, respectively.
Take `CN1CCN(Cc2ccc(NC(=O)Nc3ccc(Oc4ccc5ncccc5c4)cc3)cc2C(F)(F)F)CC1`: the inhibition result in test [21], in [22], in test [23], in test [24], in test [25] and in test [26] was “Active” in each case. The inhibition entry in test [1], in test [2], in test [3], in test [4], in [5] and in test [6] was “Active” in each case. The inhibition result in test [27] is “Active”. Also, the inhibition (in test [15]; in test [16]; in test [17]; in test [18]; in the test filed under Homo sapiens [28]; in [19]) was greater than 50% throughout. In addition, the inhibition (in [20]; in the test listed under Homo sapiens [29]) was greater than 50% in each case. In test [7], this compound had an IC50 of 0.0383 µM. Further, the figures for the GI50 in the test with BaF3 [8], in the test on BaF3 [9] and in the test on K562 were 0.036 µM, 0.162 µM and 0.0069 µM, respectively.
Regarding `CC(C)(C)c1cc(NC(=O)Nc2ccc(Oc3ccc4ncccc4c3)cc2)n(-c2ccc3ncccc3c2)n1`, the inhibition result in test [1], in test [2], in [13] and in test [14] was “Active” throughout. Also, the inhibition (in test [15]; in test [16]; in [17]; in test [18]; in the test filed under Homo sapiens [28]; in [19]) was greater than 50% throughout. The inhibition (in [20]; in the test listed under Homo sapiens [29]) was greater than 50% throughout. Moreover, the IC50 in [7] was found to be 0.345 µM; in test [30] it was 0.012 µM. Moreover, the GI50 in the test with BaF3 [8] was found to be 0.164 µM; with BaF3 [9], 0.801 µM; with K562, 0.013 µM.
Turning to `CC(C)(C)c1cc(NC(=O)Nc2ccc(Oc3ccc4cccnc4c3)cc2)n(-c2ccc3ncccc3c2)n1`, the inhibition entry in test [1] and in test [2] was “Active” in each case. For the same compound, the IC50 in test [7] was 0.719 µM. The GI50 was greater than 5 µM in the test with BaF3 [8], greater than 10 µM with BaF3 [9] and 0.239 µM in the test on K562.
Regarding `CN1CCN(Cc2ccc(NC(=O)Nc3ccc(Oc4ccc5ncncc5c4)cc3)cc2C(F)(F)F)CC1`, the inhibition entry in test [10], in test [11], in test [12], in test [3], in test [4] and in test [5] was “Active” in each case. Further, the inhibition entry in [6] was “Active”. Also, the inhibition (in test [15]; in test [16]; in test [17]; in test [18]; in the test filed under Homo sapiens [28]; in test [19]) was greater than 50% in each case. The inhibition (in [20]; in the test filed under Homo sapiens [29]) was greater than 50% in each case. This compound also came in with an IC50 in [7] of 0.0157 µM. In addition, the GI50 with BaF3 [8] stood at 0.083 µM; in the test on BaF3 [9], 0.117 µM; with K562 it was 0.0023 µM.

The values are drawn from ChEMBL document CHEMBL5104101, “Insights into the modular design of kinase inhibitors and application to Abl and Axl” (RSC Med Chem, 2022).
